Results from US12403184B2, “Compositions and methods for treating neurodegenerative disroders” (priority 2018, dated 2025).
Where no end group is shown, it is not given here.

Assays:
[1] = test system: neurons derived from HD patients; assay: Cell death by LDH release in neurons derived from iPS cells; type: cell-based, human
Description: (§1) iPS cells from a normal subject and a HD patient (carrying 41 CAG repeats) were differentiated into neurons using the protocol from our previous studies. Briefly, the iPS cells were plated onto 6-well plates precoated with 2.5% Matrigel and allowed to reach 90% confluence in feeder-free medium. For the first 10 days, the cells were treated with SB431542 (10 μM; Tocris Bioscience) and Noggin (100 ng/ml) in Neural Media (NM) containing Neurobasal and DMEM (1:1), B-27 supplement minus vitamin A (50×, Invitrogen), N2 supplement (100×, Invitrogen), GlutaMax (Invitrogen, 100×), FGF2 ([…]) and EGF ([…]), and 100 units/ml penicillin and 100 μg/ml streptomycin). For the next 10 days, the cells were treated with human recombinant Sonic hedgehog (SHH, 200 ng/ml), DKK1 (100 ng/ml) and BDNF (20 ng/ml), and 10 μM Y27632 (Sigma) in neuronal differentiation medium containing Neurobasal and DMEM (1:3), B27, N2, GlutaMax, and PS. Cells were then switched to treatment with BDNF (20 ng/ml), ascorbic acid (200 μM, Sigma-Aldrich), cAMP (0.5 mM, Sigma-Aldrich), and Y27632 (10 μM) in neuronal differentiation medium. All growth factors were purchased from PeproTech (Rocky Hill, NJ, USA). […]
Cells were treated as described, and cell death was determined by using Cytotoxicity Detection Kit (LDH) according to protocols recommended by the manufacturer (Roche).

wildtype mice = assay: Tolerability of DA1 treatment in wildtype mice; type: in vivo, mouse
Description: Systemic peptide treatment in HD mice. All randomization and peptide treatments were prepared by an experimenter not associated with behavioral and neuropathology analysis. […] […] The pump was replaced once every month.
The body weight and survival rate of HD mice and wild-type littermates were recorded throughout the study period.

[2] = test system: neurons derived from HD patients; assay: mitoROS (mitoSOX probe) in neurons derived from iPS cells; type: cell-based, human
Description: as §1
To examine mitochondrial superoxide production, the cells were stained with MitoSOX (Invitrogen, 5 μM for 10 min) at 37° C. […] At least 150 cells/group were counted and quantitated.

mtDNA = assay: Measurement of mtDNA lesion by quantitative PCR; type: cell-based, mouse; conditions: HdhQ111 cells, relative to TAT
From the text: Because the movement of the polymerase on the template is blocked at a lesion, qPCR amplification is inversely proportional to the presence of DNA damage. The level of mtDNA lesion will be calculated by comparing the 10 kb mtDNA fragment amplification, as described previously. To correct for the possible variations in the rate of mtDNA replication, the amplification of 10 kb mtDNA fragment was normalized to the 91 bp small mtDNA amplicon. Specifically, Total DNA was isolated as shown above. The amplification profile consisted of a 45-s denaturation at 94° C., 22 cycles of denaturation for 15 s at 94° C., annealing/extension at 64° C. for 12 min, and a final extension at 72° C. for 10 min.

[3] = test system: neurons derived from HD patient-iPS cells; assay: Mitochondrial and neuronal morphology in neurons derived from iPS cells; type: cell-based, human
Description: iPS cells from a normal subject and a HD patient (carrying 41 CAG repeats) were differentiated into neurons using the protocol from our previous studies. Briefly, the iPS cells were plated onto 6-well plates precoated with 2.5% Matrigel and allowed to reach 90% confluence in feeder-free medium. For the first 10 days, the cells were treated with SB431542 (10 μM; Tocris Bioscience) and Noggin (100 ng/ml) in Neural Media (NM) containing Neurobasal and DMEM (1:1), B-27 supplement minus vitamin A (50×, Invitrogen), N2 supplement (100×, Invitrogen), GlutaMax (Invitrogen, 100×), FGF2 ([…]) and EGF ([…]), and 100 units/ml penicillin and 100 μg/ml streptomycin). For the next 10 days, the cells were treated with human recombinant Sonic hedgehog (SHH, 200 ng/ml), DKK1 (100 ng/ml) and BDNF (20 ng/ml), and 10 μM Y27632 (Sigma) in neuronal differentiation medium containing Neurobasal and DMEM (1:3), B27, N2, GlutaMax, and PS. Cells were then switched to treatment with BDNF (20 ng/ml), ascorbic acid (200 μM, Sigma-Aldrich), cAMP (0.5 mM, Sigma-Aldrich), and Y27632 (10 μM) in neuronal differentiation medium. All growth factors were purchased from PeproTech (Rocky Hill, NJ, USA). Twenty days after the initiation of differentiation, the neurons (about 5000 cells) were plated onto 12-mm poly-Dlysine/laminine-coated coverslips and grown in 24-well plates in neuronal differentiation medium.
Neurons derived from iPS cells were stained with anti-Tom20 (a mitochondrial marker) and anti-GAD67 (a striatal neuronal marker). Quantitation of mitochondrial length along the neurites was conducted only in the neurons immuno-positive for GAD67. To analyze dendrite and axon outgrowth of neurons, cells were stained with anti-MAP2 (a dendritic marker) and anti-GAD67 or anti-Tau (an axonal marker) and anti-DARPP32 (a medium spiny neuron marker). The length of MAP2+ dendrite and Tau+ axon in the neurons immuno-positive for GAD67 or DARPP32 was quantitated, respectively. At least 50 neurons/group were counted.

[4] = test system: striatum of R6/2 and YAC128 mice; assay: Western blot of striatal proteins in treated HD mice; type: in vivo, mouse; conditions: for TFAM protein level / mtCO2 protein level: striatal mitochondria
Description: Cells were washed with cold phosphate-buffered saline (PBS) and incubated on ice in mitochondrial lysis buffer (250 mM sucrose, 20 mM HEPES-NaOH, pH 7.5, 10 mM KCl, 1.5 mM MgCl2, 1 mM EDTA, 1 mM EGTA, protease inhibitor cocktail, and phosphatase inhibitor cocktail) for 30 min. The cells were scraped and then disrupted 15 times by repeated aspiration through a 25-gauge needle. Mouse brains were minced and homogenized in mitochondrial lysis buffer to release mitochondria. The homogenates were spun at 800×g for 10 min at 4° C., and the resulting supernatants were spun at 12,000×g for 20 min at 4° C. The pellets were washed with lysis buffer and spun at 12,000×g again for 20 min at 4° C. The final pellets were suspended in lysis buffer containing 1% Triton X-100 and were mitochondrial-rich lysate fractions. The mitochondrial protein voltage-dependent anion channel (VDAC) was used as a loading control.
Protein concentration was measured by protein assay dye reagents (Bio-rad). The protein was resuspended in Laemmli buffer, loaded on SDS-PAGE, and transferred onto nitrocellulose membranes. Membranes were probed with the indicated antibodies, followed by visualization with ECL. Representative blots have been cropped for presentation.
Systemic peptide treatment in HD mice. All randomization and peptide treatments were prepared by an experimenter not associated with behavioral and neuropathology analysis. Male R6/2 mice (Tg) and their age-matched wild-type littermates (Wt) (6-week-old) were implanted with a 28-day osmotic pump (Alzet, Cupertino CA, Model 2004) containing TAT control peptide or DA1 peptide, which delivered peptides at a rate of 1 mg/kg/day. Male YAC128 mice (Tg) and their age-matched wild-type littermates (WT) were treated with TAT control peptide or DA1 peptide (1 mg/kg/day) by Alzet osmotic pump starting from the age of 3 months. The pump was replaced once every month.

Drp1 = Drp1 (Homo sapiens, UniProt O00429); assay: Drp1 GTP hydrolysis in vitro; type: biochemical
From the text: Drp1 GTP hydrolysis was monitored as a function of time as described previously.

[5] = cells derived from iPS cells of normal subject
[6] = 1 mg/kg/day for 30 days, Alzet mini pumps, vs saline
[7] = striatal neurons derived from HD patient iPS cells
[8] = YAC128 mice, 12 months old, striatal extracts

Drp1, sequence (O00429 whole entry): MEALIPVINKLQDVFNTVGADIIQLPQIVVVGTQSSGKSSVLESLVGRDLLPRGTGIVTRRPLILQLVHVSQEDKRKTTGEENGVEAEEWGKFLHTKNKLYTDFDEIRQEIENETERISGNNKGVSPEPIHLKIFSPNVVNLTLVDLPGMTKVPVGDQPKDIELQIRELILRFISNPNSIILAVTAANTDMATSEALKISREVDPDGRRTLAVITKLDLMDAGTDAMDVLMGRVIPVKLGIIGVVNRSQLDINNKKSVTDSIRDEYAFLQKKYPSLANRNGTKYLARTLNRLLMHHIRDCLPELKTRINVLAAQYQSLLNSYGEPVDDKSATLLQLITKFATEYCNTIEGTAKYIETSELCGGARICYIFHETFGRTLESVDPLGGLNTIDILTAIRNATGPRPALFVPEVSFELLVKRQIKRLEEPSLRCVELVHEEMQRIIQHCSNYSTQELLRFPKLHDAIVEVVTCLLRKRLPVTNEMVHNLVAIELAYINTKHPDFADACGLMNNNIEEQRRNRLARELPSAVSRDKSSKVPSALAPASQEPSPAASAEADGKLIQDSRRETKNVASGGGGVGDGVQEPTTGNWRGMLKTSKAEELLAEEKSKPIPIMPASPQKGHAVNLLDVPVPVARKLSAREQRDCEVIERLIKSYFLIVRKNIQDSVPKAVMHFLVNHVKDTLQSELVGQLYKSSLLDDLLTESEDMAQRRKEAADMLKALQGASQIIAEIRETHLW

YGRKKRRQRRRGGEDKRKT-NH2 [DA1, YGRKKRRQRRR-GG-EDKRKT-NH2]
neuronal survival [1, 5]: no observed effects
cell death (LDH release) ([1]; neurons derived from HD patients, BDNF withdrawal for 24 h): decreased
lifespan (wildtype mice): no effect
relative weight (spleen/body weight) (wildtype mice; [6]): no effects
spleen morphology (wildtype mice; [6]): no effects
visible side effects in organs (wildtype mice; 1 mg/kg/day subcutaneously): did not cause
weight loss (wildtype mice; 1 mg/kg/day subcutaneously): did not cause
behavioral status (wildtype mice; sustained treatment): minor effects
mitoROS [2]: decreased
mtDNA lesion (mtDNA): diminished
mitochondrial morphology [3, 5]: no observed effects
length of mitochondria along the neurites of GAD67+-neurons ([3]; neurons derived from HD patient-iPS cells): increased
MAP2+ dendritic outgrowth [3, 7]: improved
Tau+ axonal outgrowth [3, 7]: improved
TFAM protein level ([4]; R6/2 mice, 12 weeks old): corrected
mtCO2 protein level ([4]; R6/2 mice, 12 weeks old): corrected
nuclear-encoded mitochondrial proteins ([4]; YAC128 and wildtype mice, 6 months old, striatal mitochondrial lysates): no observable effects
TFAM protein level ([4]; YAC128 mice, 6 months old): corrected
mtCO2 protein level ([4]; YAC128 mice, 6 months old): corrected
DARPP-32 protein level [4, 8]: increased
PSD95 protein level [4, 8]: increased
PGC1α protein levels ([4]; YAC128 mouse striatum, until 12 months of age): increased
Drp1 oligomerization-induced GTPase activity (Drp1): no effects
